Entries after “also recorded” stand apart in the source; their conditions may differ.
Columns and labels:
[1] = system: NRAS mutant melanoma cells; assay: Cell viability, Alamar Blue assay; format: cell-based, human; details: 7 days; relative to DMSO-treated cells
Procedure: (§1) FIGS. 2a-h. […] (FIGS. 2a-c) NRASmut melanoma cells (FIG. 2a), BRAF-V600E/NRAS mutant cells derived from melanoma patients resistant to BRAF/MEK inhibitors (FIG. 2b), or non-transformed melanocytes and fibroblasts (FIG. 2c) were treated with 6-thio-dG for 7 days. Cell viability was measured by Alamar Blue assay and calculated relative to DMSO-treated cells. (FIG. 2d) NRASmut melanoma cells and non-transformed human fibroblasts were treated with 1 or 5 μM 6-thio-dG for 7 or 14 days. Cell death was assessed by PSVUe staining. Percent of apoptotic cells is shown. (FIG. 2e) Cells were treated with DMSO or 1 μM 6-thio-dG for 14 days and telomere length was assessed by Southern blotting of TRF. Mean TRF length expressed as kilobase pairs is indicated at the bottom. (FIGS. 2f-g) Cells were treated with 1 μM 6-thio-dG for 7 days. (FIG. 2f) ROS production was measured by H2DCFDA fluorescence and normalized to MSO treated cells. (FIG. 2g) DNA damage was assessed by γH2AX staining. […] Tumor volume was measured and average tumor volume (n=4)±SEM was plotted vs. time.
(§2) Cell culture, viability and cell death assays. […] Cell viability was assessed following 6 hr incubation with 500 μM Alamar Blue (ThermoFisher Scientific, Waltham, Mass.) using an EnVision Xcite Multilabel plate reader (Perkin Elmer, Waltham, Mass.). […]

[2] = system: BRAF-V600E/NRAS mutant cells derived from melanoma patients resistant to BRAF/MEK inhibitors; assay: Cell viability, Alamar Blue assay; format: cell-based, human; details: 7 days; relative to DMSO-treated cells
Procedure: as §1, §2

[3] = system: NRAS mutant melanoma cells; assay: DNA damage, γH2AX staining; format: cell-based, human; details: 1 μM for 7 days
Procedure: (§3) FIGS. 2a-h. […] (FIGS. 2a-c) NRASmut melanoma cells (FIG. 2a), BRAF-V600E/NRAS mutant cells derived from melanoma patients resistant to BRAF/MEK inhibitors (FIG. 2b), or non-transformed melanocytes and fibroblasts (FIG. 2c) were treated with 6-thio-dG for 7 days. Cell viability was measured by Alamar Blue assay and calculated relative to DMSO-treated cells. (FIG. 2d) NRASmut melanoma cells and non-transformed human fibroblasts were treated with 1 or 5 μM 6-thio-dG for 7 or 14 days. Cell death was assessed by PSVUe staining. Percent of apoptotic cells is shown. (FIG. 2e) Cells were treated with DMSO or 1 μM 6-thio-dG for 14 days and telomere length was assessed by Southern blotting of TRF. Mean TRF length expressed as kilobase pairs is indicated at the bottom. (FIGS. 2f-g) Cells were treated with 1 μM 6-thio-dG for 7 days. (FIG. 2f) ROS production was measured by H2DCFDA fluorescence and normalized to MSO treated cells. (FIG. 2g) DNA damage was assessed by γH2AX staining. Data represent average from three independent experiments±SEM. *p<0.05; **p<0.01; ***p<0.005 in unpaired Student's t-test. […] Tumor volume was measured and average tumor volume (n=4)±SEM was plotted vs. time.
DNA damage and telomere dysfunction assay (TIF). […] Mean fluorescence staining was quantified by flow cytometry. […]

[4] = system: NRAS mutant melanoma cells; assay: ROS production, H2DCFDA fluorescence; format: cell-based, human; details: 1 μM for 7 days
Procedure: as §3
Measurement of reactive oxygen species. General or mitochondrial specific ROS were measured by flow cytometry H2DCFDA or MitoSoxRed (Invitrogen, Waltham, Mass.) following manufacturer's specifications.

[5] = system: NRASmut melanoma cells (WM3000 or M93-047) tumors; assay: NRAS mutant melanoma xenograft tumors in NSG mice; format: in vivo; details: 2.5 mg/kg i.p. q.d.
Procedure: as §1, with “(FIGS. 2f-g) Cells were treated with 1 μM 6-thio-dG for 7 days.” left out
green) and EtBr (dead cells; red) and imaged using an inverted microscope (4×; scale bar=250 μm). […] P values were calculated using unpaired Student's t-test. * p<0.05, **p<0.01, ***p<0.005, when comparing vehicle control vs. combination treatment groups. […] Kaplan Meier survival curves of mice treated for 14 days. p-values were calculated by Mantel-Cox logrank test; * p<0.05, **p<0.01, ***p<0.005. […]

SMILES: Nc1nc2c(ncn2[C@H]2C[C@H](O)[C@@H](CO)O2)c(=S)[nH]1 [6-thio-dG, 6-thio-2′-deoxy-guanosine]
- cell viability [1]: impairs viability; also recorded: impaired the viability
- cell viability [2]: impaired the viability
- γH2AX levels [3]: increased levels
- ROS levels [4]: increased levels
- tumor growth, single agent [5]: slowed the growth of tumors; also recorded: slowed, but did not completely abrogated tumor growth
